Test: Two-photon absorption cross-sectional area, Z scan method, Examples B
Type: physicochemical
Conditions: tetrahydrofuran solution, femtosecond laser, 780 nm to 960 nm (710 nm to 990 nm)
Protocol: Each of Compounds (1), (2), (57), (58), (59), (60), (3), (4), (61), (62), (25), (26), (63), (64), (65), (66), (45), (67), (68), (69), (70), (71), (72), (5), (9), (13), (19), (27), (31), (32), (34), (36), (39), (44), (53) and (55) was dissolved in tetrahydrofuran, and the resultant tetrahydrofuran solution was measured for its two-photon absorption cross-sectional area according to the below-described evaluation method therefor.
This measurement was performed under the following conditions:
Sample concentration: 10^−2 mol to 10^−5 mol (this range covering optimal concentrations of the samples (at which measurements are easily performed));
Light path length of cell: 10 mm (corresponding to the inner diameter of cuvette);
Light: variable femtosecond laser having a wavelength of 710 nm to 990 nm; and
Light power: 10 mW to 800 mW.
The following compound (73) was dissolved in tetrahydrofuran, and the resultant solution was measured for its two-photon absorption cross-sectional area according to the below-described evaluation method therefor.
The following compound (74) was dissolved in tetrahydrofuran, and the resultant solution was measured for its two-photon absorption cross-sectional area according to the below-described evaluation method therefor.
[drawing 68] [Method for Measuring Two-Photon Absorption Cross-Sectional Area]
FIG. 8 schematically illustrates a system of the method.
Measuring light source: femtosecond titanium sapphire laser
Repetition frequency: 80 MHz
Measuring method: Z scan method
Inner diameter of cuvette: 10 mm
Light power for measurement: about 500 mW
Collection diameter: 40 μm to 50 μm
A quartz cell filled with each sample solution was placed in a light path through which a focused laser beam was passed. Then, the cell was moved along the light path for Z-scan measurement.
The sample solution was measured for its transmittance, and the thus-obtained value and the following theoretical equation (I) were used to determine a nonlinear absorption coefficient of the sample. T=[ln(1+I0L0β)]/I0L0β (I)
where T denotes a transmittance (%), I0 denotes an excited light density [GW/cm^2], L0 denotes a sample cell length [cm], and β denotes a nonlinear absorption coefficient [cm/GW].
The thus-determined nonlinear absorption coefficient and the following equation (ii) were used to calculate a two-photon absorption cross-sectional area σ. Note that the unit of σ is GM (1 GM=1×10^−50 cm^4·s·photon^−1). σ=1,000×hvβ/[…] (ii)
where h denotes the Planck's constant [J·s], v denotes a frequency of an incident laser beam [s^−1], NA denotes the Avogadoro's number, and C denotes a concentration of a solution [mol/L].

CCC1=C(C)c2nc1cc1[nH]c(c(C)c1CC)c(-c1ccccc1C(F)(F)F)c1nc(c(-c3ccc4c(c3)C(C)(C)c3cc(-c5c6nc(c(-c7ccccc7C(F)(F)F)c7[nH]c(cc8nc(c(-c9ccccc9C(F)(F)F)c9[nH]c5c(CC)c9C)C(C)=C8CC)c(CC)c7C)C(C)=C6CC)ccc3-4)c3[nH]c(c(C)c3CC)c2-c2ccccc2C(F)(F)F)C(CC)=C1C [(39)]
Two-photon absorption cross-sectional area: 890 GM

CCCCCCC1(CCCCCC)c2cc(C3=C4C=CC(=N4)C(c4cc(OC)c(OC)c(OC)c4)=c4ccc5[n]4[Ni][n]4c(ccc43)C(c3cc(OC)c(OC)c(OC)c3)=C3C=CC(=N3)C=5/C=C/c3ccc(N(c4ccccc4)c4ccccc4)cc3)ccc2-c2ccc(C3=c4ccc5[n]4[Ni][n]4c(ccc4C(c4cc(OC)c(OC)c(OC)c4)=C4C=CC3=N4)C=C3C=CC(=N3)C=5c3cc(OC)c(OC)c(OC)c3)cc21 [(68)]
Two-photon absorption cross-sectional area: 1,020 GM

CCCCCCC1(CCCCCC)c2cc(-c3c4nc(c(-c5cc(OC)c(OC)c(OC)c5)c5ccc(cc6nc(c(-c7cc(OC)c(OC)c(OC)c7)c7ccc3[nH]7)C=C6)[nH]5)C=C4)ccc2-c2ccc(-c3c4nc(c(-c5cc(OC)c(OC)c(OC)c5)c5ccc([nH]5)c(/C=C/c5ccc(N(c6ccccc6)c6ccccc6)cc5)c5nc(c(-c6cc(OC)c(OC)c(OC)c6)c6ccc3[nH]6)C=C5)C=C4)cc21 [(67)]
Two-photon absorption cross-sectional area: 990 GM

CCC1=C(C)c2cc3[nH]c(c(CC)c3C)c(-c3ccc(N(c4ccccc4)c4ccc(-c5c6nc(cc7[nH]c(cc8nc(c(-c9ccc(-c%10ccccn%10)nc9)c9[nH]c5c(CC)c9C)C(C)=C8CC)c(CC)c7C)C(C)=C6CC)cc4)cc3)c3nc(c(-c4ccc(-c5ccccn5)nc4)c4[nH]c(cc1n2)c(CC)c4C)C(C)=C3CC [(55)]
Two-photon absorption cross-sectional area: 850 GM

CCC1=C(C)c2nc1c(Br)c1[nH]c(c(C)c1CC)c(Br)c1nc(c(-c3ccc(N(c4ccccc4)c4ccc(-c5c6nc(c(-c7ccccc7C(F)(F)F)c7[nH]c(c(Br)c8nc(c(Br)c9[nH]c5c(CC)c9C)C(C)=C8CC)c(CC)c7C)C(C)=C6CC)cc4)cc3)c3[nH]c(c(C)c3CC)c2-c2ccccc2C(F)(F)F)C(CC)=C1C [(53)]
Two-photon absorption cross-sectional area: 840 GM

CCCCCCc1ccc(N(c2ccc(C3=C4N=C(C(C)=C4CC)C(c4c(C)cc(C)cc4C)=c4c(C)c(CC)c5[n]4[Zn][n]4c(c(C)c(CC)c43)C(c3c(C)cc(C)cc3C)=C3N=C(C=5)C(CC)=C3C)cc2)c2ccc(C3=c4c(CC)c(C)c5[n]4[Zn][n]4c(c(CC)c(C)c4C(c4c(C)cc(C)cc4C)=C4N=C3C(CC)=C4C)C=C3N=C(C(C)=C3CC)C=5c3c(C)cc(C)cc3C)cc2)cc1 [(26)]
Two-photon absorption cross-sectional area: 1,120 GM

CCCCCCc1ccc(N(c2ccc(-c3c4nc(c(-c5c(C)cc(C)cc5C)c5[nH]c(cc6nc(c(-c7c(C)cc(C)cc7C)c7[nH]c3c(CC)c7C)C(C)=C6CC)c(CC)c5C)C(C)=C4CC)cc2)c2ccc(-c3c4nc(c(-c5c(C)cc(C)cc5C)c5[nH]c(cc6nc(c(-c7c(C)cc(C)cc7C)c7[nH]c3c(CC)c7C)C(C)=C6CC)c(CC)c5C)C(C)=C4CC)cc2)cc1 [(25)]
Two-photon absorption cross-sectional area: 860 GM

CCCCC(CC)COc1ccc(N(c2ccc(C3=C4N=C(C(C)=C4CC)C(c4ccccc4C(=O)OC)=c4c(C)c(CC)c5[n]4[Zn][n]4c(c(C)c(CC)c43)C(c3ccccc3C(=O)OC)=C3N=C(C=5)C(CC)=C3C)cc2)c2ccc(C3=c4c(CC)c(C)c5[n]4[Zn][n]4c(c(CC)c(C)c4C(c4ccccc4C(=O)OC)=C4N=C3C(CC)=C4C)C=C3N=C(C(C)=C3CC)C=5c3ccccc3C(=O)OC)cc2)cc1 (stereo not shown) [(34)]
Two-photon absorption cross-sectional area: 1,010 GM

CCCCCCc1ccc(N(c2ccc(C3=C4C(C(=O)OC)=CC5=[N+]4[Co@]46[n]7c(cc(C(=O)OC)c73)C(c3ccc([N+](=O)[O-])cc3)=C3C=C(C(=O)OC)C(=[N+]34)C=c3c(C(=O)OC)cc([n]36)=C5c3ccc([N+](=O)[O-])cc3)cc2)c2ccc(C3=c4c(C(=O)OC)cc5[n]4[Co@]46[n]7c(cc(C(=O)OC)c7C=C7C(C(=O)OC)=CC(=[N+]74)C=5c4ccc([N+](=O)[O-])cc4)C(c4ccc([N+](=O)[O-])cc4)=C4C=C(C(=O)OC)C3=[N+]46)cc2)cc1 [(36)]
Two-photon absorption cross-sectional area: 860 GM

CC1=C(C)C2=C(I)c3c(C)c(C)c4[n]3[Zn][n]3c(cc(C)c3=C(c3ccccc3C(F)(F)F)C1=N2)=C(c1ccc2c(c1)C(C)(C)c1cc(C3=C5N=C(C(C)=C5C)C(c5ccccc5C(F)(F)F)=c5c(C)c(C)c6[n]5[Zn][n]5c3c(C)c(C)c5C(c3ccccc3C(F)(F)F)=C3N=C(C(C)=C3C)C=6I)ccc1-2)C1=NC(=C4c2ccccc2C(F)(F)F)C(C)=C1C [(44)]
Two-photon absorption cross-sectional area: 1,000 GM

CCCCCCC1(CCCCCC)c2cc(C3=C4C=CC(=N4)C(c4cc(OC)c(OC)c(OC)c4)=c4ccc5[n]4[Co][n]4c(ccc43)C(c3cc(OC)c(OC)c(OC)c3)=C3C=CC(=N3)C=5/C=C/c3ccc(N(c4ccccc4)c4ccccc4)cc3)ccc2-c2ccc(C3=c4ccc5[n]4[Co][n]4c(ccc4C(c4cc(OC)c(OC)c(OC)c4)=C4C=CC3=N4)C=C3C=CC(=N3)C=5c3cc(OC)c(OC)c(OC)c3)cc21 [(70)]
Two-photon absorption cross-sectional area: 900 GM

CCCCCCc1ccc(N(c2ccc(C3=C4N=C(C(C)=C4CC)C(c4c(C)cc(C)cc4C)=c4c(C)c(CC)c5[n]4[Ni][n]4c(c(C)c(CC)c43)C(c3c(C)cc(C)cc3C)=C3N=C(C=5)C(CC)=C3C)cc2)c2ccc(C3=c4c(CC)c(C)c5[n]4[Ni][n]4c(c(CC)c(C)c4C(c4c(C)cc(C)cc4C)=C4N=C3C(CC)=C4C)C=C3N=C(C(C)=C3CC)C=5c3c(C)cc(C)cc3C)cc2)cc1 [(63)]
Two-photon absorption cross-sectional area: 900 GM

CCCCCCC1(CCCCCC)c2cc(C3=C4C=CC(=N4)C(c4cc(OC)c(OC)c(OC)c4)=c4ccc5[n]4[Cu][n]4c(ccc43)C(c3cc(OC)c(OC)c(OC)c3)=C3C=CC(=N3)C=5/C=C/c3ccc(N(c4ccccc4)c4ccccc4)cc3)ccc2-c2ccc(C3=c4ccc5[n]4[Cu][n]4c(ccc4C(c4cc(OC)c(OC)c(OC)c4)=C4C=CC3=N4)C=C3C=CC(=N3)C=5c3cc(OC)c(OC)c(OC)c3)cc21 [(69)]
Two-photon absorption cross-sectional area: 920 GM

CC(C)(C)c1c2nc(c(C(C)(C)C)c3ccc([nH]3)c(C(C)(C)C)c3nc(c(C(C)(C)C)c4ccc1[nH]4)C=C3)C=C2 [(73), reference compound]
Two-photon absorption cross-sectional area: ≈0 GM

CCC1=C(C)C2=NC1=Cc1c(CC)c(C)c3[n]1[Ni][n]1c(c(C)c(CC)c1=C(c1ccc(N(c4ccccc4)c4ccc(C5=C6N=C(C(C)=C6CC)C(c6ccncc6)=c6c(C)c(CC)c7[n]6[Ni][n]6c(c(C)c(CC)c65)C(c5ccncc5)=C5N=C(C(CC)=C5C)C=7/C=C/c5ccc(N(c6ccccc6)c6ccccc6)cc5)cc4)cc1)C1=NC(=C3c3ccncc3)C(C)=C1CC)=C2c1ccncc1 [(32)]
Two-photon absorption cross-sectional area: 900 GM

CCC1=C(CC)c2nc1c(Br)c1[nH]c(c(CC)c1CC)c(-c1ccc([N+](=O)[O-])cc1)c1nc(c(-c3ccc4c(c3)C(C)(C)c3cc(-c5c6nc(c(-c7ccc([N+](=O)[O-])cc7)c7[nH]c(c(Br)c8nc(c(-c9ccc([N+](=O)[O-])cc9)c9[nH]c5c(CC)c9CC)C(CC)=C8CC)c(CC)c7CC)C(CC)=C6CC)ccc3-4)c3[nH]c(c(CC)c3CC)c2-c2ccc([N+](=O)[O-])cc2)C(CC)=C1CC [(27)]
Two-photon absorption cross-sectional area: 810 GM

CCCCCCc1ccc(N(c2ccc(C3=C4C=CC(=N4)C(c4ccccc4C)=c4ccc5[n]4[Pd][n]4c3ccc4C(c3ccccc3C)=C3C=CC(=N3)C=5c3ccc(/C=C/c4ccc(N(c5ccccc5)c5ccccc5)cc4)cc3)cc2)c2ccc(C3=c4ccc5[n]4[Pd][n]4c(ccc4C(c4ccccc4C)=C4C=CC3=N4)C=C3C=CC(=N3)C=5c3ccccc3C)cc2)cc1 [(31)]
Two-photon absorption cross-sectional area: 890 GM

CN(C)c1ccc(/C=C/C2=c3ccc4[n]3[Zn][n]3c(ccc3C(c3ccccn3)=C3C=CC2=N3)C(c2ccc(/C=C/c3ccc(N(c5ccccc5)c5ccccc5)cc3)cc2)=C2C=CC(=N2)C=4c2ccccn2)cc1 [(13)]
Two-photon absorption cross-sectional area: 1,030 GM

CCCCCCc1ccc(N(c2ccc(C3=C4N=C(C(C)=C4CC)C(c4c(C)cc(C)cc4C)=c4c(C)c(CC)c5[n]4[Cu][n]4c(c(C)c(CC)c43)C(c3c(C)cc(C)cc3C)=C3N=C(C=5)C(CC)=C3C)cc2)c2ccc(C3=c4c(CC)c(C)c5[n]4[Cu][n]4c(c(CC)c(C)c4C(c4c(C)cc(C)cc4C)=C4N=C3C(CC)=C4C)C=C3N=C(C(C)=C3CC)C=5c3c(C)cc(C)cc3C)cc2)cc1 [(66)]
Two-photon absorption cross-sectional area: 820 GM

From patent publication US8207330B2, “Two-photon absorption material and application thereof” (Ricoh Company, Ltd., priority 2008, dated 2012)
